# According to patent publication US6737383B1, “Herbicidal oxadiazolidines” (priority 1999, dated 2004):
# Columns and labels:
# [1] = test system: soybean; experiment: Test C postemergence soybean; type: in vivo, Glycine max; conditions: 0 to 100 scale, 0 no effect, 100 complete control
# Procedure, shortened: (§1)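 Activity is expressed as percent-style visual control, 0 (no effect) to 100 (complete control), assessed approximately 14 to 21 days after application, relative to untreated plants. Application was postemergence, using a non-phytotoxic solvent formulation with surfactant.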
# [2] = test system: giant foxtail; experiment: Test C postemergence giant foxtail; type: in vivo, Setaria faberii; conditions: 0 to 100 scale, 0 no effect, 100 complete control
# Description: (§2) Compounds evaluated in this test were formulated in a non-phytotoxic solvent mixture which included a surfactant and applied to plants that were grown for various periods of time before treatment (postemergence application). A mixture of sandy loam soil and greenhouse potting mix in a 60:40 ratio was used for the postemergence test.
# (§3) Plantings of these crops and weed species were adjusted to produce plants of appropriate size for the postemergence test. All plant species were grown using normal greenhouse practices. Crop and weed species include arrowleaf sida (Sida rhombifolia), barnyardgrass (Echinochloa crus-galli), cocklebur (Xanthium strumarium), common ragweed (Ambrosia elatior), corn (Zea mays), cotton (Gossypium hirsutum), eastern black nightshade (Solanum ptycanthum), fall panicum (Panicum dichotomiflorum), field bindweed (Convolvulus arvensis), giant foxtail (Setaria faberii), hairy beggarticks (Bidens pilosa), ivyleaf morningglory (Ipomoea hederacea), johnsongrass (Sorghum halepense), ladysthumb smartweed (Polygonum persicaria), lambsquarters (Chenopodium album), large crabgrass (Digitaria sanguinalis), purple nutsedge (Cyperus rotundus), redroot pigweed (Amaranthus retroflexus), soybean (Glycine max), surinam grass (Brachiaria decumbens), velvetleaf (Abutilon theophrasti) and wild poinsettia (Euphorbia heterophylla).
# (§4) Treated plants and untreated controls were maintained in a greenhouse for approximately 14, to 21 days, after which all treated plants were compared to untreated controls and visually evaluated. Plant response ratings, summarized in Table C, were based upon a 0 to 100 scale where 0 was no effect and 100 was complete control. A dash response (−) means no test result.
# [3] = test system: wild oat; experiment: Test E wild oat; type: in vivo, Avena fatua; conditions: Postemergence; for Plant response rating, Wild oat: 0 to 100 scale
# Procedure, shortened: (§5)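 Compounds formulated in non-phytotoxic solvent mixture with surfactant; for postemergence, sprayed on plants at 1- to 4-leaf stage grown in 60:40 sandy loam/greenhouse potting mix. Kept in greenhouse ~21 to 28 days, then visually rated against untreated controls.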
# [4] = test system: sunflower; experiment: Test E sunflower; type: in vivo, Helianthus annuus; conditions: Preemergence; for Sunflower plant response rating (0 to 100 scale): Rate 250 g/ha
# [5] = test system: windgrass; experiment: Test E windgrass; type: in vivo, Apera spica-venti; conditions: Preemergence; for Plant response rating, Windgrass: Rate 125 g/ha, 0 to 100 scale (0 no effect, 100 complete control)
# [6] = test system: wild poinsettia; experiment: Test C postemergence wild poinsettia; type: in vivo, Euphorbia heterophylla; conditions: 0 to 100 scale, 0 no effect, 100 complete control
# Description: as §2, §3, §4
# [7] = test system: blackgrass; experiment: Test E blackgrass; type: in vivo, Alopecurus myosuroides; conditions: Postemergence; for Plant response rating, Blackgrass: 0 to 100 scale; for Blackgrass plant response rating: Rate 250 g/ha, 0 to 100 scale where 0 is no effect and 100 is complete control
# Description: Compounds evaluated in this test were formulated in a non-phytotoxic solvent mixture which included a surfactant and applied to plants that were in the 1- to 4-leaf stage (postemergence application). A mixture of sandy loam soil and greenhouse potting mix in a 60:40 ratio was used for the postemergence test.
# Plantings of these crops and weed species were adjusted to produce plants of appropriate size for the postemergence test. All plant species were grown using normal greenhouse practices. Crop and weed species include annual bluegrass (Poa annua), blackgrass (Alopecurus myosuroides), black nightshade (Solanum nigra), chickweed (Stellaria media), common poppy (Papaver rhoeas), deadnettle (Lamium amplexicaule), downy brome (Bromus tectorum), field violet (Viola arvensis), galium (Galium aparine), green foxtail (Setaria viridis), Italian ryegrass (Lolium multiflorum), jointed goatgrass (Aegilops cylindrica), kochia (Kochia scoparia), lambsquarters (Chenopodium album), littleseed canarygrass (Phalaris minor), rape (Brassica napus), redroot pigweed (Amaranthus retroflexus), Russian thistle (Salsola kali), scentless chamomile (Matricaria inodora), spring barley (Hordeum vulgare), sugar beet (Beta vulgaris), sunflower (Helianthus annuus), ivyleaf speedwell (Veronica hederaefolia), spring wheat (Triticum aestivum), winter wheat (Triticum aestivum), wild buckwheat (Polygonum convolvulus), wild mustard (Sinapis arvensis), wild oat (Avena fatua), windgrass (Apera spica-venti) and winter barley (Hordeum vulgare).
# Treated plants and untreated controls were maintained in a greenhouse for approximately 21 to 28 days, after which all treated plants were compared to untreated controls and visually evaluated. […] A dash response (-) means no test result.
# [8] = test system: eastern black nightshade; experiment: Test C postemergence eastern black nightshade; type: in vivo, Solanum ptycanthum; conditions: 0 to 100 scale, 0 no effect, 100 complete control
# Procedure, shortened: as §1
# [9] = test system: rape; experiment: Test E rape; type: in vivo, Brassica napus; conditions: Postemergence; for Plant response rating, Rape: 0 to 100 scale; for Rape plant response rating: Rate 250 g/ha, 0 to 100 scale where 0 is no effect and 100 is complete control
# Procedure, shortened: as §5
# [10] = test system: Johnson grass; experiment: Test D Johnson grass; type: in vivo, Sorghum halepense; conditions: Postemergence, 0 to 100 scale
# [11] = test system: surinam grass; experiment: Test D surinam grass; type: in vivo, Brachiaria decumbens; conditions: Postemergence, 0 to 100 scale
# [12] = test system: purple nutsedge; experiment: Test D purple nutsedge; type: in vivo, Cyperus rotundus; conditions: Postemergence, 0 to 100 scale
# [13] = test system: Green foxtail; experiment: Test D green foxtail; type: in vivo; conditions: Rate 250 g/ha; Postemergence; 0 to 100 scale
# [14] = test system: Green foxtail; experiment: Test D green foxtail; type: in vivo; conditions: Postemergence, 0 to 100 scale, 0 no injury, 100 complete control
# [15] = test system: Spanishneedles; experiment: Test D Spanishneedles; type: in vivo, Bidens bipinnata; conditions: Postemergence, 0 to 100 scale
# [16] = test system: common ragweed; experiment: Test D common ragweed; type: in vivo, Ambrosia elatior; conditions: Postemergence, 0 to 100 scale
# [17] = Rate 125 g/ha, 0 to 100 scale (0 no effect, 100 complete control)
# [18] = Rate 16 g/ha, 0 no injury, 100 complete control
# [19] = Rate 32 g/ha, 0 no injury, 100 complete control
# [20] = Rate 64 g/ha, 0 no injury, 100 complete control
# [21] = Rate 125 g/ha, 0 no injury, 100 complete control
# [22] = Rate 125 g/ha, 0 is no effect, 100 is complete control
# [23] = Rate 500 g/ha, 0 is no effect, 100 is complete control
smiles,measurement,setting,value
CC(C)N(C(=O)n1oc(=O)n(C)c1=O)c1ccc(F)cc1 [Compound 138],"Plant response rating, Soybean",[1]; Rate 140 g/ha,10
same,"Plant response rating, Soybean",[1]; Rate 280 g/ha,30
same,"Plant response rating, Soybean",[1]; Rate 560 g/ha,30
same,"Plant response rating, Soybean",[1]; Rate 1120 g/ha,40
same,"Plant response rating, Giant foxtail",[2]; Rate 140 g/ha,0
same,"Plant response rating, Giant foxtail",[2]; Rate 280 g/ha,15
same,"Plant response rating, Giant foxtail",[2]; Rate 560 g/ha,80
same,"Plant response rating, Giant foxtail",[2]; Rate 1120 g/ha,85
same,"Plant response rating, Wild oat",[3]; Rate 125 g/ha,0
same,Wild oat plant response rating,"[3]; Rate 250 g/ha, 0 to 100 scale where 0 is no effect and 100 is complete control",0
same,"Plant response rating, Sunflower",[4]; [17],55
same,Sunflower plant response rating (0 to 100 scale),[4],60
same,"Plant response rating, Windgrass",[5],100
same,Windgrass plant response rating (0 to 100 scale),[5]; Rate 250 g/ha,100
same,Plant response rating Wild poinsettia,[6]; Rate 140 g/ha,0
same,Plant response rating Wild poinsettia,[6]; Rate 280 g/ha,0
same,Plant response rating Wild poinsettia,[6]; Rate 560 g/ha,0
same,Plant response rating Wild poinsettia,[6]; Rate 1120 g/ha,70
same,"Plant response rating, Blackgrass",[7]; Rate 125 g/ha,20
same,Blackgrass plant response rating,[7],0
same,Plant response rating E. blacknightsh,[8]; Rate 140 g/ha,0
same,Plant response rating E. blacknightsh,[8]; Rate 280 g/ha,10
same,Plant response rating E. blacknightsh,[8]; Rate 560 g/ha,70
same,Plant response rating E. blacknightsh,[8]; Rate 1120 g/ha,70
same,"Plant response rating, Rape",[9]; Rate 125 g/ha,10
same,Rape plant response rating,[9],0
CC(C)N(C(=O)n1oc(=O)n(C2CC2)c1=O)c1ccc(F)cc1 [Compound 242],"Plant response rating, Johnsongrass",[10]; [18],0
same,"Plant response rating, Johnsongrass",[10]; [19],0
same,"Plant response rating, Johnsongrass",[10]; [20],40
same,"Plant response rating, Johnsongrass",[10]; [21],30
same,"Plant response rating, Johnsongrass",[10]; Rate 250 g/ha,90
same,"Plant response rating, Soybean",[1]; Rate 140 g/ha,20
same,"Plant response rating, Soybean",[1]; Rate 280 g/ha,25
same,"Plant response rating, Soybean",[1]; Rate 560 g/ha,25
same,"Plant response rating, Soybean",[1]; Rate 1120 g/ha,65
same,"Plant response rating, Giant foxtail",[2]; Rate 140 g/ha,40
same,"Plant response rating, Giant foxtail",[2]; Rate 280 g/ha,60
same,"Plant response rating, Giant foxtail",[2]; Rate 560 g/ha,80
same,"Plant response rating, Giant foxtail",[2]; Rate 1120 g/ha,85
same,"Plant response rating, Wild oat",[3]; [22],0
same,"Plant response rating, Wild oat",[3]; [23],20
same,"Plant response rating, Surinam grass",[11]; [18],0
same,"Plant response rating, Surinam grass",[11]; [19],30
same,Surinam grass plant response rating,[11]; [20],100
same,Surinam grass plant response rating,[11]; [21],100
same,"Plant response rating, Surinam grass",[11]; Rate 250 g/ha,100
same,"Plant response rating, Sunflower",[4]; [17],55
same,Sunflower plant response rating (0 to 100 scale),[4],70
same,"Plant response rating, Sunflower","[4]; Rate 500 g/ha, 0 to 100 scale where 0 is no effect and 100 is complete control",60
same,"Plant response rating, Purple nutsedge",[12]; [18],0
same,"Plant response rating, Purple nutsedge",[12]; [19],0
same,Purple nutsedge plant response rating,[12]; [20],0
same,Purple nutsedge plant response rating,[12]; [21],0
same,"Plant response rating, Purple nutsedge",[12]; Rate 250 g/ha,100
same,"Plant response rating, Green foxtail",[13],100
same,"Plant response rating, Green foxtail",[14]; Rate 16 g/ha,30
same,"Plant response rating, Green foxtail",[14]; Rate 32 g/ha,100
same,"Plant response rating, Windgrass",[5],100
same,Plant response rating Wild poinsettia,[6]; Rate 140 g/ha,0
same,Plant response rating Wild poinsettia,[6]; Rate 280 g/ha,0
same,Plant response rating Wild poinsettia,[6]; Rate 560 g/ha,0
same,Plant response rating Wild poinsettia,[6]; Rate 1120 g/ha,85
same,"Plant response rating, Spanishneedles",[15]; [18],0
same,"Plant response rating, Spanishneedles",[15]; [19],0
same,Spanishneedles plant response rating,[15]; [20],0
same,Spanishneedles plant response rating,[15]; [21],0
same,"Plant response rating, Spanishneedles",[15]; Rate 250 g/ha,100
same,"Plant response rating, C. ragweed",[16]; [18],50
same,"Plant response rating, C. ragweed",[16]; [19],30
same,"Plant response rating, C. ragweed",[16]; [20],30
same,"Plant response rating, C. ragweed",[16]; [21],90
same,"Plant response rating, C. ragweed",[16]; Rate 250 g/ha,100
same,"Plant response rating, Blackgrass",[7]; Rate 62 g/ha,60
same,"Plant response rating, Blackgrass",[7]; [22],0
same,Blackgrass plant response rating,[7],10
same,"Plant response rating, Blackgrass",[7]; [23],50
same,Plant response rating E. blacknightsh,[8]; Rate 140 g/ha,0
same,Plant response rating E. blacknightsh,[8]; Rate 280 g/ha,40
same,Plant response rating E. blacknightsh,[8]; Rate 560 g/ha,60
same,Plant response rating E. blacknightsh,[8]; Rate 1120 g/ha,90
same,"Plant response rating, Rape",[9]; Rate 62 g/ha,20
same,"Plant response rating, Rape",[9]; [22],10
same,Rape plant response rating,[9],0
same,"Plant response rating, Rape",[9]; [23],50
CC(C)N(C(=O)n1oc(=O)n(C2CCCCCC2)c1=O)c1ccc(F)cc1F [Compound 342],"Plant response rating, Johnsongrass",[10]; [18],0
same,"Plant response rating, Johnsongrass",[10]; [19],0
same,"Plant response rating, Johnsongrass",[10]; [20],0
same,"Plant response rating, Johnsongrass",[10]; [21],0
same,"Plant response rating, Johnsongrass",[10]; Rate 250 g/ha,0
same,"Plant response rating, Surinam grass",[11]; [18],0
same,"Plant response rating, Surinam grass",[11]; [19],0
same,Surinam grass plant response rating,[11]; [20],20
same,Surinam grass plant response rating,[11]; [21],30
same,"Plant response rating, Surinam grass",[11]; Rate 250 g/ha,40
same,"Plant response rating, Purple nutsedge",[12]; [18],0
same,"Plant response rating, Purple nutsedge",[12]; [19],0
same,Purple nutsedge plant response rating,[12]; [20],0
same,Purple nutsedge plant response rating,[12]; [21],0
same,"Plant response rating, Purple nutsedge",[12]; Rate 250 g/ha,0
same,"Plant response rating, Green foxtail",[13],100
same,"Plant response rating, Green foxtail",[14]; Rate 16 g/ha,0
same,"Plant response rating, Green foxtail",[14]; Rate 32 g/ha,0
same,"Plant response rating, Spanishneedles",[15]; [18],0
same,"Plant response rating, Spanishneedles",[15]; [19],0
same,Spanishneedles plant response rating,[15]; [20],0
same,Spanishneedles plant response rating,[15]; [21],0
same,"Plant response rating, Spanishneedles",[15]; Rate 250 g/ha,0
same,"Plant response rating, C. ragweed",[16]; [19],0
same,"Plant response rating, C. ragweed",[16]; [20],0
same,"Plant response rating, C. ragweed",[16]; [21],0
same,"Plant response rating, C. ragweed",[16]; Rate 250 g/ha,100
